Results published in patent publication US10160705B2, “Class of HDAC inhibitors expands the renal progenitor cells population and improves the rate of recovery from acute kidney injury” (University of Pittsburgh—Of the Commonwealth System of …, priority 2011, dated 2018).
pEC50: −log10 of the molar value. “Also recorded” adds a separate entry of the source. Where two headings read alike, the source gives them in different places.

What was measured:
[1] = system: renal progenitor cells; assay: In situ hybridization for lhx1a expression in 10-somite embryos (renal progenitor cell expansion); type: in vivo; conditions: for concentration producing an expansion of lhx1a expression consistent with 3 μM PTBA: concentration-response; for Lhx1a expansion caused by analog treatment, 800 nM: 800 nM from 2 hpf; for pEC50: first pass EC50 from percent expansion (Excel trendline), average where several experiments; for Lhx1a expansion caused by analog treatment, 100 nM: key: effective (+); partially effective (+/−); ineffective (−); Analogs that killed all embryos at a given concentration before reaching 10 somites are listed as XX; for Lhx1a expansion caused by analog treatment, 200 nM: key: effective (+); partially effective (+/−); ineffective (−); Analogs that killed all embryos at a given concentration before reaching 10 somites are listed as XX; for Lhx1a expansion caused by analog treatment, 400 nM: key: effective (+); partially effective (+/−); ineffective (−); Analogs that killed all embryos at a given concentration before reaching 10 somites are listed as XX; for Lhx1a expansion caused by analog treatment, 800 nM: key: effective (+); partially effective (+/−); ineffective (−); Analogs that killed all embryos at a given concentration before reaching 10 somites are listed as XX
Method in brief: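 Zebrafish embryos treated with compound, then colorimetric whole-mount in situ hybridization (65° C) for lhx1a mRNA at 10 somites. Embryos with expanded kidney field counted manually as percent of total. EC50 taken as 50% point of percent-expansion trendline; compounds also classed effective, partial or ineffective versus PTBA at matched concentration.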

[2] = system: histone H4; assay: Histone H4 hyperacetylation Western blot in treated embryos; type: in vivo, zebrafish; conditions: 24 hpf embryos, 6 hours; 3 μM PTBA, 25 μM PBA, 200 nM TSA
Description: It was next determined whether the HDACi function of PTBA was quantifiable in vivo. 24 hpf embryos were treated with 3 μM PTBA, 25 μM PBA, or 200 nM TSA for 6 hours. Protein extracts were prepared and immunoblotted with an anti-hyperacetylated histone H4 antibody. […] Furthermore, increasing the compound concentration caused a corresponding increase in hyperacetylation (FIG. 21).
SDS-PAGE and Western blotting were performed as described previously with some modifications (Noel, E. S. et al. Organ-specific requirements for Hdac1 in liver and pancreas formation. Dev Biol 322, 237-250, (2008)). Proteins were separated on 18% SDS-PAGE gels. Membranes were incubated at 4° C. overnight with 1:1000 anti-hyperacetylated histone H4 antibody (06-946, Millipore) or 1:1000 anti-α-tubulin antibody (Sigma-Aldrich) in PBT containing 5% nonfat milk.

[3] = system: zebrafish embryos; assay: Phenotypic screen for edema and survival in zebrafish larvae at 72 hpf; conditions: for larvae with edemic phenotype / pericardial edema by 72 hpf: 3 μM PTBA; for larvae with edemic phenotype / pericardial edema by 72 hpf / death by 72 hpf: 25 μM PBA, 200 nM TSA; for death by 72 hpf: n=90; for Dead / Edemic 1 (E1) / Edemic 2 (E2) / Edemic 3 (E3) / Wild-type (WT): number of larvae (of 36), 3 μM from 2 hpf, scored at 72 hpf
Method in brief: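 Embryos (5/well in primary screen; 12–30 per group otherwise) exposed from 2 hpf in E3 medium with 0.5% DMSO, 10 μM in screen or stated concentrations, 28.5 °C for 70 h. At 72 hpf, edema scored by phenotype classification (dominant phenotype in ≥4/5 embryos in screen); survival vs 0 μM by two-tailed Fisher's exact test (p<0.05).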

[4] = system: mesodermal markers myod1, fli1a, and ntla; assay: In situ hybridization for the mesodermal markers myod1, fli1a and ntla in 10-somite embryos; type: in vivo, zebrafish
Description: PTBA was synthesized as described below. Hydroxyurea and aphidicolin were obtained from Sigma-Aldrich.
In situ hybridization and immunocytochemistry: In situ hybridization was performed as previously described with some modifications.142 Hybridization temperature was 65° C. Embryos were blocked in 2% blocking reagent (Roche) with 5% sheep serum in MAB (100 mM maleic acid and 150 mM NaCl [pH 7.5]). Whole-mount immunocytochemistry with 1:25 mouse anti-α6F antibody (Developmental Studies Hybridoma Bank) and 1:100 Cy3 secondary antibody (Jackson ImmunoResearch) was performed as described previously.108 Embryos were embedded in JB-4 for sectioning per the manufacturer's instructions (Polysciences), sectioned at 5 μm, and mounted with Cytoseal 60 (Richard-Allan Scientific).

[5] = system: human HDACs; assay: Fluorescence histone deacetylation assay with HeLa cell nuclear extract; type: biochemical
Description: To evaluate this in vitro, the deacetylation of a fluorescent peptide substrate was measured in the presence of human HDACs.
In vitro HDAC activity assays were performed using a fluorescence HDAC assay kit (Active Motif) according to the manufacturer's instructions. For maintaining compound solubility at 5 mM, the final DMSO concentration in all assay wells was increased to 5%. Fluorescence was detected using an M5 Plate Reader ([…])

[6] = system: CD1 mice; assay: Folic acid-induced AKI in CD1 mice; type: in vivo, mouse; conditions: daily IP from 24 hrs after folic acid, 15 days
Description: FIG. 42 are photomicrographs showing the results of an AKI model using folic acid-induced injury. Folic acid is administered to CD1 mice (n=6/group) intraperitoneally (IP) at […] in 0.3M NaHCO3. Compound UPHD-00022 was injected daily IP at […] in 30% PEG300 vehicle starting 24 hrs after folic acid treatment. Kidney tissue was stained using Trichrome and Sirus Red stained after 15 days. Blue in trichrome and the red in sirus red indicates fibrotic (scar) tissue.

[7] = system: HDAC; conditions: 5 mM; cited from earlier work
[8] = system: proximal convoluted tubule cells; assay: Renal cell proliferation post gentamycin-induced AKI in zebrafish larvae; type: in vivo; conditions: 4 μM added 2 days post injection of gentamicin, EdU at 5 days post injection
Description: FIG. 43A is a graph showing the results of an AKI model using gentamycin-induced injury. AKI is generated as per a recent publication, Cianciolo Cosenitino, C., et al. ((2010) Intravenous microinjections of zebrafish larvae to study acute kidney injury. JoVE August 4 (42), pii: 2079. doi: 10.3791/2079). Four micromolar m4PTB (UPHD-00025) was added to the zebrafish E3 media in 0.5% DMSO at 2 days post injection of gentamicin and the larvae are scored daily for four days (6 days post injection) as alive or dead, with the final data tallied on day 6 post injection FIG. 43B.
Proliferation of renal cells was examined post AKI for m4PTB in zebrafish larvae (FIG. 44). AKI is generated as above with gentamycin, essentially as described in Example 11. Four μM m4PTB was added 2 days post injection of gentamicin. Zebrafish larvae at 5 days post injection were treated for 1 hour with the thymidine analogue EdU (10 milimolar), which incorporates into dividing (proliferating cells) while the larvae are in the zebrafish E3 media. The larvae where then fixed and processed for histology to count the number of proliferating cells in the proximal convulted tubule (as marked by the antibody 3G8). The number of proliferating cells was divided by the total number of cells in the proximal convoluted tubule to generate the percent of proliferation also known as the proliferation index as shown in FIG. 44.

[9] = system: Acetylated Histone H3 K9; assay: Renal histone acetylation after single S/C injection in CD1 mice; type: in vivo, mouse; conditions: 3.4 mg/kg single SC injection, 24 hours
Description: PTBA analogs are used at a dose range determined from comparative dose efficacy with m4PTB in the secondary zebrafish screen. […] Preliminary studies compared the effect of Trichostatin A (an established, but toxic HDACi) at an effective dose in the zebrafish screen ([…]) with an equivalent dose of m4PTB (0.8 mM), and then ×2 and ×4 dose increments (molar concentration in vivo based on estimate uniform distribution relative to body mass of water). […] Studies may be performed on 3 mice/group.

[10] = cited from earlier work
[11] = 100 nM from 2 hpf, 10-somite embryos
[12] = 200 nM from 2 hpf, 10-somite embryos
[13] = 1.5 μM from 2 hpf, 10-somite embryos
[14] = 3 μM from 2 hpf, 10-somite embryos
[15] = Danio rerio, 1.5 μM from 2 hpf, 10-somite embryos, read-out: lhx1a expansion, percent of treated embryos
[16] = Danio rerio, percent of embryos with expanded kidney field, 1.5 μM, read-out: Expansion of Cells (including repeats* and recounts**) 1.5 μM
[17] = Danio rerio, percent of embryos with expanded kidney field, 3 μM, read-out: Expansion of Cells (including repeats* and recounts**) 3 μM

Structure (SMILES) | concentration producing an expansion of lhx1a expression consistent with 3 μM PTBA ([1]; 10-somite embryos) | histone H4 hyperacetylation [2] | larvae with edemic phenotype / pericardial edema by 72 hpf [3] | death by 72 hpf [3] | Dead [3] | Edemic 1 (E1) [3] | Edemic 2 (E2) [3] | Edemic 3 (E3) [3] | Wild-type (WT) [3] | Lhx1a expansion caused by analog treatment, 800 nM ([1]; 10-somite embryos) | Lhx1a expansion caused by analog treatment, 1.5 μM [1, 13] | Lhx1a expansion caused by analog treatment, 3 μM [1, 14] | responders at 1.5 µM [1, 15] | responders at 1.5 µM [1, 16] | responders at 3 µM [1, 17] | pEC50 ([1]; Danio rerio) | further results
CC(/C=C/C(=O)NO)=C\[C@@H](C)C(=O)c1ccc(N(C)C)cc1 [TSA, trichostatin A, reference compound] | 0.2 µM | Histone H4 hyperacetylation was observed | 100% | 61% | 36 | 0 | 0 | 0 | 0 |  |  |  |  |  |  |  | Lhx1a expansion caused by analog treatment, 100 nM [1, 11]: +; lhx1a expansion, percent of treated embryos [1, 11]: 97%; Lhx1a expansion caused by analog treatment, 200 nM [1, 12]: +; lhx1a expansion, percent of treated embryos [1, 12]: 100%; lethality before reaching 10 somites ([1]; 400 nM): died before reaching 10 somites; treated embryos killed ([1]; 800 nM): lethal; lethality before the 10-somite stage ([1]; 1.5 μM): lethal; lethality before the 10-somite stage ([1]; 3 μM): killed all treated embryos; treated 72 hpf larvae killed ([3]; 300 nM): greater than 90%; normal ntla expression disrupted, percent of treated embryos ([4]; 200 nM): 86%; myod1 expression decreased, percent of treated embryos ([4]; 3 μM PTBA (slightly decreased), 25 μM PBA, 200 nM TSA): 100%; fli1a expression decreased, percent of treated embryos ([4]; 25 μM PBA, 200 nM TSA): 95%; HDAC activity ([5]; 1 μM TSA, all input levels of nuclear extract): completely blocked activity
COC(=O)CCCSc1ccc(OC)cc1 [UPHD-00022, methyl 4-[(4-methoxy-phenyl)sulfanyl]butanoate] |  |  |  |  | 1 | 2 | 24 | 9 | 0 | + | + | + | 91% | 83% | 85% | 5.85 | Lhx1a expansion caused by analog treatment, 400 nM ([1]; 400 nM from 2 hpf, 10-somite embryos): +/−; responders at 0.8 µM ([1]; Danio rerio, percent of embryos with expanded kidney field, 800 nM, read-out: Expansion of Cells (including repeats* and recounts**) 800 nM): 39%; responders at 0.4 µM ([1]; Danio rerio, read-out: lhx1a expansion, percent of treated embryos, 400 nM from 2 hpf, 10-somite embryos): 29%; responders at 0.8 µM ([1]; Danio rerio, read-out: lhx1a expansion, percent of treated embryos, 800 nM from 2 hpf, 10-somite embryos): 57%; renal fibrosis (Trichrome and Sirus Red) [6]: reduction in fibrosis
O=C(O)CCCc1ccccc1 [PBA, 4-phenylbutanoic acid, reference compound] | 25 µM | Histone H4 hyperacetylation was observed | 23% | 8% | 0 | 0 | 0 | 0 | 36 |  |  | − |  |  |  |  | HDAC activity, percent of the control value [7]: 19%; HDAC activity elicited by 10 μg HeLa extract, percent of the control value ([5]; 5 mM compound): 30%
COC(=O)CCCSc1ccccc1 [UPHD-00025, methyl 4-(phenylsulfanyl)butanoate (m4PTB)] |  |  |  |  | 8 | 0 | 2 | 26 | 0 | +/− | + | + | 89% | 89% | 97% | 6.36 | renal cell proliferation (proliferation index) [8]: significantly increased; renal Ac-H3 K9 induction [9]: maximal expression of Ac—H3 K9; also recorded: maximal induction of H3K9A; responders at 3 µM ([1]; Danio rerio, 3 μM from 2 hpf, 10-somite embryos, read-out: lhx1a expansion, percent of treated embryos): 100%; responders at 0.2 µM ([1]; Danio rerio, percent of embryos with expanded kidney field, 200 nM, read-out: Expansion of Cells (including repeats* and recounts**) 200 nM): 33%
O=C(O)CCCc1ccccc1 [Buphenyl] |  |  |  |  |  |  |  |  |  |  |  |  |  |  |  |  | half-life (t1/2) ([10]; following administration): ~1 h; bioavailability ([10]; taken orally): about 80%
